From ChEMBL document CHEMBL4477225, “Development of a cell viability assay to assess drug metabolite structure-toxicity relationships” (Bioorg Med Chem Lett, 2016) come the findings set out here.

SMILES strings stand for the structures.

Holding throughout (settings): recombinant enzyme
The target of data set [1] is Cytochrome P450 3A4 (Homo sapiens, UniProt P08684). The data set can be described thus: Drug activation in human Hep3B cells assessed as human CYP3A4-mediated drug metabolism-induced cytotoxicity measured as decrease in cell viability at 300 uM pre-incubated with BSO for 18 hrs followed by incubation with compound for 3 hrs in presence of NADPH measured after 24 hrs in absence of compound, CYP3A4 and NADPH by cell titer-glo luminescence assay relative to BSO alone.
Sequence of Cytochrome P450 3A4 (P08684 whole entry): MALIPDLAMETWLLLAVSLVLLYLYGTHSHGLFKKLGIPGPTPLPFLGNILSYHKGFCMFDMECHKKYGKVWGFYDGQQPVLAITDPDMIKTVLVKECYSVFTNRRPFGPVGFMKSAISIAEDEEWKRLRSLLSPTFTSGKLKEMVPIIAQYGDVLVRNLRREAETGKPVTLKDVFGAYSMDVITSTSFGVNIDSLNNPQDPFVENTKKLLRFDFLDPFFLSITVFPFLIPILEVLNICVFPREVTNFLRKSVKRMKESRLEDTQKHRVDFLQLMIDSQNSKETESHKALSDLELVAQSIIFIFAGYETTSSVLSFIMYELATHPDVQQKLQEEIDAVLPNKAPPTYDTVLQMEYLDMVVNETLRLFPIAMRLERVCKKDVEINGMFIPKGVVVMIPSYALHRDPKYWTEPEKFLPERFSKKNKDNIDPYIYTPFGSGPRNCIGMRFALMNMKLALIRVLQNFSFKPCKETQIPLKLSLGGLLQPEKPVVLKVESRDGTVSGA

Data set [2] deals with Cytochrome P450 2D6 (Homo sapiens, UniProt P10635). Put plainly: Drug activation in human Hep3B cells assessed as human CYP2D6-mediated drug metabolism-induced cytotoxicity measured as decrease in cell viability at 300 uM pre-incubated with BSO for 18 hrs followed by incubation with compound for 3 hrs in presence of NADPH measured after 24 hrs in absence of compound, CYP3A4 and NADPH by cell titer-glo luminescence assay relative to BSO alone. (ATP-based viability assays read luminescence as a measure of living cells.)
Sequence of Cytochrome P450 2D6 (P10635 whole entry): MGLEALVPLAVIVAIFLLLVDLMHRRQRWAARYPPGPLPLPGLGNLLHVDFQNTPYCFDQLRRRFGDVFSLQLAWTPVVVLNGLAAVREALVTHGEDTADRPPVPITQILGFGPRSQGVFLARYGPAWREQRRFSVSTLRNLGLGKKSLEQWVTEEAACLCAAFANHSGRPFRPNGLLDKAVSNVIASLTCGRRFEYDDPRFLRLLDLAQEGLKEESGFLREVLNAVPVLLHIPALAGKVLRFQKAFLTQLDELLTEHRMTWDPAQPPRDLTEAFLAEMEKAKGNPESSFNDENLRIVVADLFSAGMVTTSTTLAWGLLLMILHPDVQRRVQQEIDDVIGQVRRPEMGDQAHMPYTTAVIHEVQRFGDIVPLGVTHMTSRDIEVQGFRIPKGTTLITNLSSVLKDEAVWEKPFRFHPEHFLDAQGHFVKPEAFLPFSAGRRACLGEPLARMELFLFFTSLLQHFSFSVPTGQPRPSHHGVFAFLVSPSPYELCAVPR

Data set [3] addresses Cytochrome P450 2C9 (Homo sapiens, UniProt P11712). The data set can be described thus: Drug activation in human Hep3B cells assessed as human CYP2C9-mediated drug metabolism-induced cytotoxicity measured as decrease in cell viability at 300 uM pre-incubated with BSO for 18 hrs followed by incubation with compound for 3 hrs in presence of NADPH measured after 24 hrs in absence of compound, CYP3A4 and NADPH by cell titer-glo luminescence assay relative to BSO alone.

Sequence of Cytochrome P450 2C9 (P11712 whole entry): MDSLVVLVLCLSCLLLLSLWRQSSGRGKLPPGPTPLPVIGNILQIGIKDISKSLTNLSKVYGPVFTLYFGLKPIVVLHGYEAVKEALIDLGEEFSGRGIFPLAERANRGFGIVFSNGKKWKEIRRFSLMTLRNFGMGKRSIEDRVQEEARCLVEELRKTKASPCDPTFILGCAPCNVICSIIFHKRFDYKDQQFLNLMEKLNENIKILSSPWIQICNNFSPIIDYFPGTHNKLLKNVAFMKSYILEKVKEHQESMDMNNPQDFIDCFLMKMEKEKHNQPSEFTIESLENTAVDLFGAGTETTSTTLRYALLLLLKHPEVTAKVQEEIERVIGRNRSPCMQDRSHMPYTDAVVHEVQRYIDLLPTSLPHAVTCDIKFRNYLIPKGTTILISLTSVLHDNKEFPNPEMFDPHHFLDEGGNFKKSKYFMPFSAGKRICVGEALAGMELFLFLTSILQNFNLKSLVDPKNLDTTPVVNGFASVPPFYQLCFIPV

For `CCCCCCCCCCCCOS(=O)(=O)O.CC[C@H]1OC(=O)[C@H](C)[C@@H](O[C@H]2C[C@@](C)(OC)[C@@H](O)[C@H](C)O2)[C@H](C)[C@@H](O[C@@H]2O[C@H](C)C[C@H](N(C)C)[C@H]2O)[C@](C)(O)C[C@@H](C)C(=O)[C@H](C)[C@@H](O)[C@]1(C)O`, the FC in data set [1] and in data set [2] was 1 each time.
As to `O=C(O)COc1ccc(C(=O)c2cccs2)c(Cl)c1Cl`, the FC in data set [3], in data set [1] and in data set [2] was 1 throughout.
As to `Nc1nc(NC2CC2)c2ncn([C@H]3C=C[C@@H](CO)C3)c2n1` [ABACAVIR], the FC in data set [3], in data set [1] and in data set [2] was 1 in each case.
On to `Nc1nc2c(ncn2COCCO)c(=O)[nH]1` [ACYCLOVIR], for which the FC in data set [3], in data set [1] and in data set [2] was 1 in each case.
For `CC(C)(C)NCC(O)c1ccc(O)c(CO)c1` (stereo not drawn) [ALBUTEROL], the FC in data set [3], in data set [1] and in data set [2] was 1 in each case.
In the case of `Oc1ncnc2[nH]ncc12` [ALLOPURINOL], the FC in data set [3], in data set [1] and in data set [2] was 1 throughout.
Regarding `COC(c1ccccc1)(c1ccccc1)[C@H](Oc1nc(C)cc(C)n1)C(=O)O` [AMBRISENTAN], the FC in data set [3], in data set [1] and in data set [2] was 1 throughout.
`O=C(O)CCCCCCNC1c2ccccc2CCc2ccccc21` [AMINEPTINE]: the FC in data set [3], in data set [1] and in data set [2] was 1 each time.
Regarding `Nc1ccc(C(=O)O)c(O)c1` [AMINOSALICYLIC ACID], the FC in data set [3], in data set [1] and in data set [2] was 1 throughout.
For the compound `CC1(C)S[C@@H]2[C@H](NC(=O)[C@H](N)c3ccc(O)cc3)C(=O)N2[C@H]1C(=O)O` [AMOXICILLIN], the FC in data set [3], in data set [1] and in data set [2] was 1 each time.
As to `CC(=O)Oc1ccccc1C(=O)O` [ASPIRIN], the FC in data set [3], in data set [1] and in data set [2] was 1 in each case.
Regarding `CC(C(=O)O)c1ccc2oc(-c3ccc(Cl)cc3)nc2c1` (stereo not drawn) [BENOXAPROFEN], the FC in data set [3], in data set [1] and in data set [2] was 1 in each case.
`C[N+](C)(C)CC(=O)O` [BETAINE]: the FC in data set [3], in data set [1] and in data set [2] was 1 each time.
In the case of `COc1ccccc1Oc1c(NS(=O)(=O)c2ccc(C(C)(C)C)cc2)nc(-c2ncccn2)nc1OCCO` [BOSENTAN], the FC in data set [3], in data set [1] and in data set [2] was 1 each time.
On to `Nc1c(CC(=O)O)cccc1C(=O)c1ccc(Br)cc1` [BROMFENAC], for which the FC in data set [3], in data set [1] and in data set [2] was 1 throughout.
On to `CC(NC(C)(C)C)C(=O)c1cccc(Cl)c1` (stereo not drawn) [BUPROPION], for which the FC in data set [3], in data set [1] and in data set [2] was 1 each time.
Take `CS(=O)(=O)OCCCCOS(C)(=O)=O` [BUSULFAN]: the FC in data set [3], in data set [1] and in data set [2] was 1 each time.
Consider `C[C@H](CS)C(=O)N1CCC[C@H]1C(=O)O` [CAPTOPRIL], for which the FC in data set [3], in data set [1] and in data set [2] was 1 in each case.
On to `NC(=O)N1c2ccccc2C=Cc2ccccc21` [CARBAMAZEPINE], for which the FC in data set [3], in data set [1] and in data set [2] was 1 throughout.
For the compound `C[C@@](Cc1ccc(O)c(O)c1)(NN)C(=O)O` [CARBIDOPA ANHYDROUS], the FC in data set [3], in data set [1] and in data set [2] was 0.6 throughout.
On to `CCCNC(=O)NS(=O)(=O)c1ccc(Cl)cc1` [CHLORPROPAMIDE], for which the FC in data set [3], in data set [1] and in data set [2] was 1 each time.
For the compound `O=C(O)c1cc(-c2ccccc2)nc2ccccc12` [CINCHOPHEN], the FC in data set [3], in data set [1] and in data set [2] was 1 throughout.
As for `Clc1cccc(Cl)c1N=C1NCCN1` [CLONIDINE], the FC in data set [3], in data set [1] and in data set [2] was 1 throughout.
As for `O=P1(N(CCCl)CCCl)NCCCO1` (stereo not drawn) [CYCLOPHOSPHAMIDE ANHYDROUS], the FC in data set [3], in data set [1] and in data set [2] was 1 throughout.
As for `CN(C)/N=N/c1[nH]cnc1C(N)=O` [DACARBAZINE], the FC in data set [1] and in data set [2] was 1 in each case.
`CC(=O)N(O)CCCCCNC(=O)CCC(=O)N(O)CCCCCNC(=O)CCC(=O)N(O)CCCCCN` [DEFEROXAMINE]: the FC in data set [3], in data set [1] and in data set [2] was 1 throughout.
Regarding `O=c1[nH]cnc2c1ncn2[C@H]1CC[C@@H](CO)O1` [DIDANOSINE], the FC in data set [3], in data set [1] and in data set [2] was 1 in each case.
As to `C[C@H]1O[C@@H](O[C@H]2[C@@H](O)C[C@H](O[C@H]3[C@@H](O)C[C@H](O[C@H]4CC[C@@]5(C)[C@H](CC[C@@H]6[C@@H]5C[C@@H](O)[C@]5(C)[C@@H](C7=CC(=O)OC7)CC[C@]65O)C4)O[C@@H]3C)O[C@@H]2C)C[C@H](O)[C@@H]1O` [DIGOXIN], the FC in data set [3], in data set [1] and in data set [2] was 1 throughout.
Consider `COC(=O)CCc1ccc(OCC(O)CNC(C)C)cc1` (stereo not drawn) [ESMOLOL], for which the FC in data set [3], in data set [1] and in data set [2] was 1 throughout.
Turning to `CC[C@@H](CO)NCCN[C@@H](CC)CO` [ETHAMBUTOL], the FC in data set [3], in data set [1] and in data set [2] was 1 in each case.
`CCc1cccc2c3c([nH]c12)C(CC)(CC(=O)O)OCC3` (stereo not drawn) [ETODOLAC]: the FC in data set [3], in data set [1] and in data set [2] was 1 throughout.
As for `CC(C(=O)O)c1ccc(-c2ccccc2)c(F)c1` (stereo not drawn) [FLURBIPROFEN], the FC in data set [3], in data set [1] and in data set [2] was 1 in each case.
On to `Nc1nc2ncc(CNc3ccc(C(=O)N[C@@H](CCC(=O)O)C(=O)O)cc3)nc2c(=O)[nH]1` [FOLIC ACID], for which the FC in data set [3], in data set [1] and in data set [2] was 0.6 each time.
In the case of `Nc1nc(O)c2ncn(COC(CO)CO)c2n1` [GANCICLOVIR], the FC in data set [3], in data set [1] and in data set [2] was 1 in each case.
Regarding `COC1=CC(=O)C[C@@H](C)[C@]12Oc1c(Cl)c(OC)cc(OC)c1C2=O` [GRISEOFULVIN], the FC in data set [3], in data set [1] and in data set [2] was 1 each time.
`O=C(CCCN1CCC(O)(c2ccc(Cl)cc2)CC1)c1ccc(F)cc1` [HALOPERIDOL]: the FC in data set [3], in data set [1] and in data set [2] was 1 in each case.
Take `NNC(=O)c1ccncc1` [ISONIAZID]: the FC in data set [3], in data set [1] and in data set [2] was 1 each time.
Turning to `NC[C@H]1O[C@H](O[C@H]2[C@H](O)[C@@H](O[C@H]3O[C@H](CO)[C@@H](O)[C@H](N)[C@H]3O)[C@H](N)C[C@@H]2N)[C@H](O)[C@@H](O)[C@@H]1O` [KANAMYCIN], the FC in data set [3], in data set [1] and in data set [2] was 1 in each case.
With `Nc1ccn([C@@H]2CS[C@H](CO)O2)c(=O)n1` [LAMIVUDINE], the FC in data set [3], in data set [1] and in data set [2] was 1 each time.
`Cc1oncc1C(=O)Nc1ccc(C(F)(F)F)cc1` [LEFLUNOMIDE]: the FC in data set [1] and in data set [2] was 1 each time.
For `Sc1ncnc2nc[nH]c12` [MERCAPTOPURINE ANHYDROUS], the FC in data set [1] and in data set [2] was 1 each time.
`CC(C)NCC(O)c1cc(O)cc(O)c1` (stereo not drawn) [METAPROTERENOL]: the FC in data set [3], in data set [1] and in data set [2] was 1 each time.
Regarding `CN(Cc1cnc2nc(N)nc(N)c2n1)c1ccc(C(=O)N[C@@H](CCC(=O)O)C(=O)O)cc1` [METHOTREXATE], the FC in data set [1] and in data set [2] was 1 throughout.
Turning to `COCCc1ccc(OCC(O)CNC(C)C)cc1` (stereo not drawn) [METOPROLOL], the FC in data set [3], in data set [1] and in data set [2] was 1 throughout.
Regarding `Cc1cccc(C)c1OCC(C)N` (stereo not drawn) [MEXILETINE], the FC in data set [3], in data set [1] and in data set [2] was 1 in each case.
For the compound `O=C(O)c1cccnc1` [NIACIN], the FC in data set [1] and in data set [2] was 1 in each case.
Consider `CS(=O)(=O)Nc1ccc([N+](=O)[O-])cc1Oc1ccccc1` [NIMESULIDE], for which the FC in data set [3] was found to be 1.
In the case of `NC(=O)c1ncn([C@@H]2O[C@H](CO)[C@@H](O)[C@H]2O)n1` [RIBAVIRIN], the FC in data set [1] and in data set [2] was 1 in each case.
As to `CCOc1ccccc1OCCN[C@H](C)Cc1ccc(OC)c(S(N)(=O)=O)c1` [TAMSULOSIN], the FC in data set [3] and in data set [1] was 1 in each case.
With `CCCCNC(=O)NS(=O)(=O)c1ccc(C)cc1` [TOLBUTAMIDE], in data set [2], the FC came out at 1.
